Data from US12435128B2, “Method for predicting therapeutic effect of LSD1 inhibitor based on expression of INSM1” (TAIHO PHARMACEUTICAL CO., LTD., priority 2017, dated 2025).
Where a name gives a salt, the structure may show the parent alone. Read-outs that look alike come from different tables or passages of the source.

How the values were obtained:
Format in all cases: cell-based
[1] = test system: HEL cells (human acute myelocytic leukemia cell lines); experiment: Cell-growth inhibition test: HEL cells; conditions: read-out: IC50 (nM), Cell-Growth Inhibition Test: HEL Cells
Description: (§1) Under the following conditions, an in vitro cell-growth inhibition test was performed with respect to HEL cells (human acute myelocytic leukemia cell lines), NCI-H1417 cells (human small-cell lung cancer cell lines), and NCI-H146 cells (human small-cell lung cancer cell lines).
(§2) The cells with the Example compound or with dimethylsulfoxide alone were cultured at 37° C. in a 5% carbon-dioxide-containing incubator for 5 days (HEL cells) or 10 days (NCI-H1417 cells and NCI-H146 cells). After culture, the plate was allowed to stand at room temperature for 30 minutes, and 100 μL of the supernatant was removed from each well to leave 100 μL of the cell culture solution. To each well containing the remaining 100 μL of the cell culture solution, the same amount of CellTiter-Glo 2.0 Assay (Promega, Cat #: G9242) was added. The microplate was shaken with a plate mixer for 1 minute and then allowed to stand in a dark place for 10 minutes. Thereafter, the luminescence intensity of viable cells in each well was measured using a microplate reader (PerkinElmer, EnSpire). […] Cell growth rate(%)=T/C×100 • T: The luminescence intensity in a well to which the test compound was added (count per second) • C: The luminescence intensity in a well to which dimethylsulfoxide alone was added (count per second)

[2] = test system: NCI-H1417 cells (human small-cell lung cancer cell lines); experiment: Cell-growth inhibition test: NCI-H1417 cells; conditions: read-out: IC50 (nM), Cell-Growth Inhibition Test: NCI-H1417 Cells
Description: as §1, §2

[3] = test system: NCI-H146 cells (human small-cell lung cancer cell lines); experiment: Cell-growth inhibition test: NCI-H146 cells; conditions: NCI-H146 cells; read-out: IC50 (nM), Cell-Growth Inhibition Test: NCI-H146 Cells
Description: as §1, §2

For `N#Cc1ccc(-c2cc(C(=O)N3C4CCC3CC(N)C4)ccc2-c2cc3nnn(CC4(O)CCC4)c3c(C(F)F)c2F)cc1F` (stereo not drawn) [Example 262, 5′-((3-endo)-3-amino-8-azabicyclo[3.2.1]octane-8-carbonyl)-2′-(7-(difluoromethyl)-6-fluoro-1-((1-hydroxycyclobutyl)methyl)-1H-benzo[d][1,2,3]triazol-5-yl)-3-fluoro-[1,1′-biphenyl]-4-carbonitrile], which IC50 [1] is on record?
The IC50 was 0.93 nM.

And the IC50 [2]?
The IC50 was 0.7 nM.

And the IC50 [3]?
The IC50 was 3.1 nM.

For `Cn1ccc2cc(-c3ccc(C(=O)N4C5CCC4CC(N)C5)cc3-c3ccc(C#N)c(F)c3)ccc21` (stereo not drawn) [Example 18, 4-[5-[(3-exo)-3-amino-8-azabicyclo[3.2.1]octane-8-carbonyl]-2-(1-methylindol-5-yl)phenyl]-2-fluoro-benzonitrile], which IC50 ([1]; HEL cells) is on record?
The IC50 was 3.55 nM.

What about the IC50 ([2]; NCI-H1417 cells) of the same molecule?
The IC50 was 4.73 nM.

And the IC50 [3]?
The IC50 was 8.13 nM.

`Cc1c(F)c(-c2ccc(C(=O)N3C4CCC3CC(N)C4)cc2-c2ccc(C#N)c(F)c2)cc2nnn(CC(C)(C)O)c12` (stereo not drawn) [Example 240, 5′-((3-endo)-3-amino-8-azabicyclo[3.2.1]octane-8-carbonyl)-3-fluoro-2′-(6-fluoro-1-(2-hydroxy-2-methylpropyl)-7-methyl-1H-benzo[d][1,2,3]triazol-5-yl)-[1,1′-biphenyl]-4-carbonitrile] was tested. Which IC50 [1] did it give?
The IC50 was 4.2 nM.

What about the IC50 [2] of the same molecule?
The IC50 was 2.55 nM.

And the IC50 [3]?
The IC50 was 4.81 nM.

With `CC(C)(O)Cn1nnc2cc(-c3ccc(C(=O)N4[C@@H]5CC[C@H]4[C@@H](N)C5)cc3-c3ccc(C#N)c(F)c3)c(F)c(C#N)c21` (single isomer, unassigned) [Example 247] as the molecule, how does the IC50 [1] read?
The IC50 was 3.02 nM.

What about the IC50 [2] of the same molecule?
The IC50 was 1.4 nM.

And the IC50 [3]?
The IC50 was 3.84 nM.

Which IC50 [1] does the source give for `CCC(O)(CC)Cn1ncc2cc(-c3ccc(C(=O)N4C5CCC4CC(N)C5)cc3-c3ccc(C#N)c(F)c3)c(F)cc21` (stereo not drawn) [Example 205, 5′-((3-endo)-3-amino-8-azabicyclo[3.2.1]octane-8-carbonyl)-2′-(1-(2-ethyl-2-hydroxybutyl)-6-fluoro-1H-indazol-5-yl)-3-fluoro-[1,1′-biphenyl]-4-carbonitrile] here?
Its IC50 is 4.95 nM.

And the IC50 [2]?
The IC50 was 6.25 nM.

What about the IC50 [3] of the same molecule?
Its IC50 is 15.1 nM.

With `Cn1ccc2cc(-c3ccc(C(=O)N4C5CCC4CC(N)C5)cc3-c3ccc(C#N)c(F)c3)c(F)cc21` (stereo not drawn) [Example 123, 4-[5-[(3-endo)-3-amino-8-azabicyclo[3.2.1]octane-8-carbonyl]-2-(6-fluoro-1-methyl-indol-5-yl)phenyl]-2-fluoro-benzonitrile] as the molecule, how does the IC50 ([1]; HEL cells) read?
The IC50 was 1.99 nM.

What about the IC50 ([2]; NCI-H1417 cells) of the same molecule?
Its IC50 is 3.57 nM.

And the IC50 [3]?
The IC50 was 1.39 nM.

Which IC50 [1] does the source give for `CC(C)(O)Cn1ccc2cc(-c3ccc(CN4[C@@H]5CC[C@H]4[C@@H](N)C5)cc3-c3ccc(C#N)c(F)c3)c(F)cc21` (single isomer, unassigned) [Example 289, dihydrochloride] here?
Its IC50 is 0.036 nM.

And the IC50 [2]?
Its IC50 is 0.094 nM.

And the IC50 [3]?
Its IC50 is 0.97 nM.

For `Cc1noc2cc(-c3ccc(C(=O)N4[C@@H]5CC[C@H]4[C@@H](N)C5)cc3-c3ccc(C#N)c(F)c3)c(F)cc12` (single isomer, unassigned) [Example 202], which IC50 [1] is on record?
The IC50 was 0.24 nM.

What about the IC50 [2] of the same molecule?
Its IC50 is 0.62 nM.

And the IC50 [3]?
The IC50 was 0.73 nM.

Which results are given for `CC(C)(O)CC1OCc2cc(-c3ccc(C(=O)N4[C@@H]5CC[C@H]4[C@@H](N)C5)cc3-c3ccc(C#N)c(F)c3)c(F)cc21` (single isomer, unassigned) [Example 226]?
IC50 [1]: 2.56 nM; IC50 [2]: 5.36 nM; IC50 [3]: 10.1 nM

With `CC(C)(O)CCn1ncc2cc(-c3ccc(C(=O)N4C5CCC4CC(N)C5)cc3-c3ccc(C#N)c(F)c3)c(F)cc21` (stereo not drawn) [Example 194, 5′-((3-endo)-3-amino-8-azabicyclo[3.2.1]octane-8-carbonyl)-3-fluoro-2′-(6-fluoro-1-(3-hydroxy-3-methylbutyl)-1H-indazol-5-yl)-[1,1′-biphenyl]-4-carbonitrile] as the molecule, how does the IC50 [1] read?
The IC50 was 15.5 nM.

And the IC50 [2]?
The IC50 was 5.63 nM.

And the IC50 [3]?
The IC50 was 11.3 nM.

Which results are given for `CC(C)(O)Cn1nnc2cc(-c3ccc(C(=O)N4C5CCC4CC(N)C5)cc3-c3ccc(C#N)c(F)c3)c(F)c(C(F)F)c21` (stereo not drawn) [Example 250, 5′-((3-endo)-3-amino-8-azabicyclo[3.2.1]octane-8-carbonyl)-2′-(7-(difluoromethyl)-6-fluoro-1-(2-hydroxy-2-methylpropyl)-1H-benzo[d][1,2,3]triazol-5-yl)-3-fluoro-[1,1′-biphenyl]-4-carbonitrile]?
IC50 [1]: 2.36 nM; IC50 [2]: 1.2 nM; IC50 [3]: 9.3 nM

Which results are given for `CC(C)(O)Cn1ccc2cc(-c3ccc(C(=O)N4C5CCC4CC(N)C5)cc3-c3ccc(C#N)c(F)c3)c(F)c(F)c21` (stereo not drawn) [Example 183, 5′-((3-endo)-3-amino-8-azabicyclo[3.2.1]octane-8-carbonyl)-2′-(6,7-difluoro-1-(2-hydroxy-2-methylpropyl)-1H-indol-5-yl)-3-fluoro-[1,1′-biphenyl]-4-carbonitrile]?
IC50 [1]: 0.54 nM; IC50 [2]: 1.01 nM; IC50 [3]: 0.25 nM

Which IC50 [1] does the source give for `CC(C)(O)Cn1nnc2cc(-c3ccc(CN4[C@@H]5CC[C@H]4[C@@H](N)C5)cc3-c3ccc(C#N)c(F)c3)c(F)c(F)c21.Cl.Cl` (single isomer, unassigned) [Example 285, dihydrochloride] here?
Its IC50 is 0.046 nM.

What about the IC50 [2] of the same molecule?
The IC50 was 0.09 nM.

What about the IC50 [3] of the same molecule?
Its IC50 is 0.49 nM.

Which IC50 [1] does the source give for `CN(C)C(=O)c1cn(C)c2cc(F)c(-c3ccc(C(=O)N4[C@@H]5CC[C@H]4[C@@H](N)C5)cc3-c3ccc(C#N)c(F)c3)cc12` (single isomer, unassigned) [Example 238] here?
Its IC50 is 26.1 nM.

What about the IC50 [2] of the same molecule?
Its IC50 is 10.8 nM.

What about the IC50 [3] of the same molecule?
The IC50 was 17.7 nM.

For `N#Cc1ccc(-c2cc(C(=O)N3[C@@H]4CC[C@H]3[C@@H](N)C4)ccc2-c2cc3nnn(CC4(O)CCC4)c3c(C(F)F)c2F)cc1F` (single isomer, unassigned) [Example 260], which IC50 [1] is on record?
The IC50 was 0.13 nM.

What about the IC50 [2] of the same molecule?
The IC50 was 0.13 nM.

What about the IC50 [3] of the same molecule?
The IC50 was 0.48 nM.

With `Cc1c(F)c(-c2ccc(C(=O)N3[C@@H]4CC[C@H]3[C@@H](N)C4)cc2-c2ccc(C#N)c(F)c2)cc2nnn(CC(C)(C)O)c12` (single isomer, unassigned) [Example 228] as the molecule, how does the IC50 [1] read?
The IC50 was 0.68 nM.

What about the IC50 [2] of the same molecule?
The IC50 was 0.3 nM.

And the IC50 [3]?
Its IC50 is 0.51 nM.

Which results are given for `N#Cc1ccc(-c2cc(C(=O)N3[C@@H]4CC[C@H]3[C@@H](N)C4)ccc2-c2cc3nnn(CC4(O)CCC4)c3c(C#N)c2F)cc1F` (single isomer, unassigned) [Example 264]?
IC50 [1]: 0.84 nM; IC50 [2]: 0.3 nM; IC50 [3]: 0.96 nM

`Cc1ccc(-c2ccc(CN3[C@@H]4CC[C@H]3[C@@H](N)C4)cc2-c2ccc(C#N)c(F)c2)c(F)c1` (single isomer, unassigned) [Example 283] was tested. Which IC50 [1] did it give?
The IC50 was 0.79 nM.

What about the IC50 [2] of the same molecule?
Its IC50 is 2.1 nM.

And the IC50 [3]?
Its IC50 is 11.1 nM.

Which results are given for `CCC(O)(CC)Cn1ncc2cc(-c3ccc(C(=O)N4[C@@H]5CC[C@H]4[C@@H](N)C5)cc3-c3ccc(C#N)c(F)c3)c(F)cc21` (single isomer, unassigned) [Example 206]?
IC50 [1]: 0.4 nM; IC50 [2]: 0.95 nM; IC50 [3]: 1.09 nM

With `CC(C)(O)Cn1ncc2cc(-c3ccc(CN4[C@@H]5CC[C@H]4[C@@H](N)C5)cc3-c3ccc(C#N)c(F)c3)c(F)cc21` (single isomer, unassigned) [Example 287, dihydrochloride] as the molecule, how does the IC50 [2] read?
Its IC50 is 0.1 nM.

And the IC50 [3]?
The IC50 was 0.2 nM.

What does the source list for `N#Cc1ccc(-c2cc(C(=O)N3C4CCC3CC(N)C4)ccc2-c2cc3nnn(CC4(O)CCC4)c3c(C#N)c2F)cc1F` (stereo not drawn) [Example 266, 5-(5-((3-endo)-3-amino-8-azabicyclo[3.2.1]octane-8-carbonyl)-4′-cyano-3′-fluoro-[1,1′-biphenyl]-2-yl)-6-fluoro-1-((1-hydroxycyclobutyl)methyl)-1H-benzo[d][1,2,3]triazole-7-carbonitrile]?
IC50 [1]: 4.63 nM; IC50 [2]: 1.85 nM; IC50 [3]: 17.5 nM

Which IC50 [1] does the source give for `N#Cc1ccc(-c2cc(C(=O)N3[C@@H]4CC[C@H]3[C@@H](N)C4)ccc2-c2cc3nnn(CC4(O)CCC4)c3c(F)c2F)cc1F` (single isomer, unassigned) [Example 254] here?
Its IC50 is 0.2 nM.

What about the IC50 [2] of the same molecule?
The IC50 was 0.18 nM.

What about the IC50 [3] of the same molecule?
Its IC50 is 0.36 nM.

`CNC(=O)c1cn(C)c2cc(F)c(-c3ccc(C(=O)N4[C@@H]5CC[C@H]4[C@@H](N)C5)cc3-c3ccc(C#N)c(F)c3)cc12` (single isomer, unassigned) [Example 237] was tested. Which IC50 [1] did it give?
The IC50 was 28.5 nM.

What about the IC50 [2] of the same molecule?
The IC50 was 6.63 nM.

What about the IC50 [3] of the same molecule?
The IC50 was 5.14 nM.

With `CCC(O)(CC)Cn1nnc2cc(-c3ccc(C(=O)N4[C@@H]5CC[C@H]4[C@@H](N)C5)cc3-c3ccc(C#N)c(F)c3)c(F)c(Cl)c21` (single isomer, unassigned) [Example 218] as the molecule, how does the IC50 [1] read?
Its IC50 is 0.22 nM.

And the IC50 [2]?
Its IC50 is 0.21 nM.

What about the IC50 [3] of the same molecule?
Its IC50 is 0.33 nM.

With `CCC(O)(CC)Cn1nnc2cc(-c3ccc(C(=O)N4C5CCC4CC(N)C5)cc3-c3ccc(C#N)c(F)c3)c(F)c(Cl)c21` (stereo not drawn) [Example 220, 5′-((3-endo)-3-amino-8-azabicyclo[3.2.1]octane-8-carbonyl)-2′-(7-chloro-1-(2-ethyl-2-hydroxybutyl)-6-fluoro-1H-benzo[d][1,2,3]triazol-5-yl)-3-fluoro-[1,1′-biphenyl]-4-carbonitrile] as the molecule, how does the IC50 [1] read?
The IC50 was 1.09 nM.

And the IC50 [2]?
The IC50 was 1.03 nM.

What about the IC50 [3] of the same molecule?
Its IC50 is 1.81 nM.

Which IC50 [1] does the source give for `CCC(O)(CC)Cn1nnc2cc(-c3ccc(CN4[C@@H]5CC[C@H]4[C@@H](N)C5)cc3-c3ccc(C#N)c(F)c3)c(F)c(Cl)c21` (single isomer, unassigned) [Example 288, dihydrochloride] here?
The IC50 was 0.062 nM.

What about the IC50 [2] of the same molecule?
The IC50 was 0.22 nM.

And the IC50 [3]?
The IC50 was 1.29 nM.
